The text below walks through data of patent US20170130196A1, “METHOD FOR CULTURING AND PATTERNING CELLS” (President and Fellows of Harvard College, priority 2015, published 2017).

The test system of this test is GFP-expressing A549 human lung cancer cells. In words: Response of cells-in-string to toxins/drugs (crossed drug-laden string, confocal imaging). The test is classed as cell-based. As for the experimental part:
Scale bar represents 150 μm.
Cells in string were evaluated for the effect of a toxic drug on cancer cells. Green fluorescent protein (GFP) expressing A549 human lung cancer cells were grown in cotton string in Matrigel for two days. […] Doxorubicin was selected due to its potency in cancer treatment. These two strings were then crossed and sandwiched between two layers of filter paper that were impregnated with Matrigel. This assembly was cultured for two days and the cellular patterns that were transferred to the paper were imaged. […] A second experiment included the doxorubicin-laden string (FIG. 7B).

`COc1cccc2c1C(=O)c1c(O)c3c(c(O)c1C2=O)C[C@@](O)(C(=O)CO)C[C@@H]3O[C@H]1C[C@H](N)[C@H](O)[C@H](C)O1` [Doxorubicin]: where the note is “1 μM Doxorubicin embedded in top string, cells grown in silk string for two days, top string removed following 24 h culture (FIG. 7B)”, the “cell death of GFP-A549 cells where exposed to drug-laden top string” value is given as “died in the area where they were exposed to the top string”. Further, the “cell death of GFP-A549 cells where contacted by drug-laden top string” value (1 mM Doxorubicin encapsulated in string, cells in cotton string in Matrigel, crossed, sandwiched between Matrigel-impregnated filter paper, cultured two days) was “died on the region where they contacted the top string containing doxorubicin”.
